One assay has as its target T1, NLRP3 inflammasome (Homo sapiens, UniProt Q96P20).
T1 construct: freshly isolated from human peripheral blood from healthy donors; StemCells Technologies; host or cells: primary human PBMCs
Nature of the assay: NLRP3 inflammasome activation assay in LPS-primed, nigericin-stimulated PBMCs, IL-1β release. The class given is cell-based. The settings on record: 10 μM nigericin. How it is done:
Some of the following assays were used to determine the inhibitory activity of the compounds on the NLRP3 inflammasome using a common inflammasome activation stimuli-nigericin.
(§1) Human peripheral blood mononuclear cells (PBMCs), consisting of lymphocytes (T, B and NK cells), monocytes and dendritic cells, are freshly isolated from human peripheral blood from healthy donors. Cells are obtained through an IRB approved donor program by iXCells Biotechnologies where all the donors are tested for bacterial and viral infections. Cells are purified from peripheral blood using ficoll gradient centrifugation.
(§2) Fresh or cryopreserved PMBCs are seeded in V-bottom 96-well plate at 0.5-1×10^5 cells per well and incubated overnight at 37° C. with 5% CO2 in RPMI 1640 medium with GlutaMAX supplement, 4.5 g/L D-glucose, 10% Fetal Bovine Serum (FBS), […] Sodium Pyruvate, 1% Penicillin/Streptomycin, 10 mM HEPES and 0.05 mM of […]. Freshly isolated or cryopreserved KCs cells are seeded in flat-bottom 96-well plates at 0.6-1.5×10^5 cells/well and incubated overnight at 37° C., 5% CO2 in RPMI 1640 Medium with GlutaMAX supplement, FBS, 1% Penicillin/Streptomycin and 10 mM HEPES. The following day, the cells are primed with 100 ng/mL of lipopolysaccharides (LPS; Sigma Aldrich) in FBS-free RPMI 1640 for 3 h. After the priming step, the media is removed and PBMCs are pre-incubated with serial concentrations of test compounds (0.00017-10 uM) or vehicle (DMSO) for 30 min in FBS-free media prior to addition of the NLRP3 activator. Cells are then stimulated with 10 μM Nigericin (Sigma Aldrich; InvivoGen) for 1.5 h. Plates were centrifuged at 1,500 rpm for 3 minutes to pellet cells and supernatant was transferred into new plates for subsequent experiments.
For ELISA assays cells are seeded into 96-well plates. Post study, supernatants are removed and the levels of mature IL-1β, IL18 and TNFα (Quantikine ELISA, R&D systems) are measured in cell conditioned media by ELISA according to manufacturer's instructions.
Human frozen PBMCs were purchased from StemCells Technologies. Cells were rapidly thawed in 37° C. water bath and resuspended in fresh assay media consisting of RPMI 1640 Medium containing 1% sodium pyruvate, 10 mM HEPES, 2.5 g/L glucose and 55 μM 2-Mercaptoethanol. Cell density was adjusted to 8.1×10^5 cells/mL. Cells were primed by adding lipopolysaccharide (Invivogen Ultrapure lipopolysaccharide from E. coli, tlrl-3pelps) at a final concentration of 100 ng/mL in cell suspension. 37 μL of cell suspension with LPS was seeded per well of a 384 well plate and incubated for 3 hours at 37° C. and 5% CO2. After priming, PBMCs were preincubated with serially diluted test compounds with starting concentration of 40 μM followed by 2-fold dilution for a 20-point curve or vehicle (DMSO) for 30 min in assay media at 37° C. and 5% CO2. Cells were then stimulated with 10 μM nigericin (Invivogen, tlrl-nig-5) for 90 min at 37° C. and 5% CO2 to activate NLRP3 dependent inflammasome pathway and IL-1β release in cell culture supernatant. Cells were centrifuged at 1200 RPM for 1 min and 40 μL of supernatant was transferred into fresh plates and stored at −80° C. until IL-1β analysis.
16 μL of supernatant was added to white 384 well HTRF plates, followed by addition of 4 μL of HTRF cocktail in each well. Plates were quickly centrifuged, sealed and incubated overnight at room temperature. Next day, HTRF signal was read on a Pherastar and ratio of 665/620 was calculated based on manufacturer's protocol to obtain concentration of IL-1β in cell culture supernatant.

For the next assay, the system named is PBMCs. Nature of the assay: CTG (CellTiter-Glo) viability assay of compound-treated LPS and nigericin stimulated PBMCs. The class given is cell-based, human. Here is the method:
as §1, §2
Viability of compound treated cells is measured using CellTiter-Glo® assay (Promega, Madison, Wis.) that measures the ATP content of cells which is proportional to the number of live cells within a well. This is a counter-screen to establish that the reduction of IL-1β levels in LPS and nigericin stimulated and compound treated cells is not due to cytotoxicity, but rather through the inhibition of the inflammasome pathway. Compounds inhibiting NRLP3 inflammasome activation ultimately increase the viability of LPS and nigericin stimulated cells by blocking NLRP3 mediated pyroptosis that would otherwise lead to cell lysis.
In general terms: In ATP-based viability assays light output follows the ATP content of the culture.

[1] abbreviates: LPS 100 ng/mL priming, read-out: IL-1B pIC50 (converted).
The mark [2] stands for this setting: Homo sapiens, PBMC, LPS and nigericin stimulated cells, read-out: CTG pIC50 (converted).
The mark [3] stands for this setting: PBMC, LPS priming, read-out: PMBC IL-1β IC50.
[4] abbreviates: Homo sapiens, PBMC, read-out: PMBC CTG IC50.
[5] abbreviates: LPS and nigericin stimulated cells, read-out: CTG pIC50 (converted).

The structures appear in SMILES notation. Read-outs that look alike come from different tables or passages of the source.

T1 sequence (Q96P20 whole entry): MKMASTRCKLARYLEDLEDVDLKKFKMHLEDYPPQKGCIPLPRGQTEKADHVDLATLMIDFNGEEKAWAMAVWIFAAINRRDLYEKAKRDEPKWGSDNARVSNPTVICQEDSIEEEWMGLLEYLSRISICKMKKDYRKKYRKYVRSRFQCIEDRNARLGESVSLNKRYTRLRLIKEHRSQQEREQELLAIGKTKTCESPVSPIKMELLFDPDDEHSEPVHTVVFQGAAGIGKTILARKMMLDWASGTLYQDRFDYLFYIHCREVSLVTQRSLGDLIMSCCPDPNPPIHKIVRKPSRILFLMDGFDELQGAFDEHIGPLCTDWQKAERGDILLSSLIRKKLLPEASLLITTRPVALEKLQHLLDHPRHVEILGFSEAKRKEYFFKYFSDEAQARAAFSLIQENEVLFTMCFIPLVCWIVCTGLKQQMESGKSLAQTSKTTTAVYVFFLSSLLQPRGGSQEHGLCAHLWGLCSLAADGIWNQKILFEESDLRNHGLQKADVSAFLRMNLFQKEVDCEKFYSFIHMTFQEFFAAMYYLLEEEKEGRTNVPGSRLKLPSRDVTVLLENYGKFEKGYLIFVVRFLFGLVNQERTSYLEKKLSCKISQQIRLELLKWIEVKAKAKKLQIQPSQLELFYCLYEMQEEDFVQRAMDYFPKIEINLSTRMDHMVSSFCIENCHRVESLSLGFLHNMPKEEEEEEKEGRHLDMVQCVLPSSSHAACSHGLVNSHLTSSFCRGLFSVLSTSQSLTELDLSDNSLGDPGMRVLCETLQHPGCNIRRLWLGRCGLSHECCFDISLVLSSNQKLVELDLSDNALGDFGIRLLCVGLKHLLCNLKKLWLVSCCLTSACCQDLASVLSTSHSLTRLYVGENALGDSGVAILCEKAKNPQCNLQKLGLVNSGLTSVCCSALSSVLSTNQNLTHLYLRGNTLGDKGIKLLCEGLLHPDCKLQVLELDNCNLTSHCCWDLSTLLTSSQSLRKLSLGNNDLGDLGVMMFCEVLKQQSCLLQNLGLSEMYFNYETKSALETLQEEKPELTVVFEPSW

For `CCn1nc(C(C)C)c(NC(=O)NS(=O)(=O)c2cnn3c2OCCC3)c1C(C)C` [drawing 401], the IC50 on NLRP3 inflammasome (setting [1]) was 1000 to 10000 nM; with PBMCs (setting [2]), 100 to 1000 nM. For `CC(C)c1cc(C2CC2)nc(C(C)C)c1NC(=O)NS(=O)(=O)c1cnn2c1OCCC2` [Example 45, N-((6-cyclopropyl-2,4-diisopropylpyridin-3-yl)carbamoyl)-6,7-dihydro-5H-pyrazolo[5,1-b][1,3]oxazine-3-sulfonamide], the IC50 at NLRP3 inflammasome (setting [3]) worked out at 910 nM; in the assay on PBMCs (setting [4]), 370 nM. Turning to `CCOc1cc(C(C)C)c(NC(=O)NS(=O)(=O)c2cnn3c2OCCC3)c(C(C)C)n1` [drawing 417], the IC50 on NLRP3 inflammasome (setting [1]) and with PBMCs (setting [2]) was 1000 to 10000 nM in each case. As for `COc1cc(C(C)C)c(NC(=O)NS(=O)(=O)c2cnn3c2OC[C@@H](OC)C3)c(C(C)C)n1` [drawing 404], the IC50 at NLRP3 inflammasome (setting [1]) and in the assay with PBMCs (setting [2]) was 100 to 1000 nM throughout. Regarding `COc1cc(C(C)C)c(NC(=O)NS(=O)(=O)c2cnn3c2OCCC3)c(C(C)C)n1` [drawing 396], the IC50 on NLRP3 inflammasome (setting [1]) and with PBMCs (setting [2]) was 100 to 1000 nM throughout.

As for `CC(C)c1ccnc(C(C)C)c1NC(=O)NS(=O)(=O)c1cnn2c1OCCC2` [drawing 398], the results for the IC50 on NLRP3 inflammasome (setting [1]) and in the assay with PBMCs (setting [5]) were 1000 to 10000 nM and 100 to 1000 nM, respectively. For `CC(C)c1ccnc(C(C)C)c1NC(=O)NS(=O)(=O)c1cnn2c1OCCC2` [drawing 397], in that order: 1000 to 10000 nM and 1000 to 10000 nM.

In the case of `O=C(NC1(c2ccccc2)CC1)NS(=O)(=O)c1cnn2c1OCCC2` [Example 11, N-((1-phenylcyclopropyl)carbamoyl)-6,7-dihydro-5H-pyrazolo[5,1-b][1,3]oxazine-3-sulfonamide], the IC50 at NLRP3 inflammasome (setting [3]) and in the assay with PBMCs (setting [4]) was over 10000 nM each time.

As to `CC(C)c1cncc(C(C)C)c1NC(=O)NS(=O)(=O)c1cnn2c1OCCC2` [drawing 393], the IC50 at NLRP3 inflammasome (setting [1]) and with PBMCs (setting [2]) was 100 to 1000 nM in each case. Turning to `CC(C)c1cc(Cl)nc(C(C)C)c1NC(=O)NS(=O)(=O)c1cnn2c1OCCC2` [Example 32, N-((6-chloro-2,4-diisopropylpyridin-3-yl)carbamoyl)-6,7-dihydro-5H-pyrazolo[5,1-b][1,3]oxazine-3-sulfonamide], the IC50 at NLRP3 inflammasome (setting [3]) stood at 590 nM; in the assay with PBMCs (setting [4]), 920 nM. Consider `CCn1nc(C(C)C)c(NC(=O)NS(=O)(=O)c2cnn3c2OC[C@@H](OC)C3)c1C(C)C` [drawing 406], for which the IC50 was 1000 to 10000 nM on NLRP3 inflammasome (setting [1]) and 100 to 1000 nM with PBMCs (setting [2]).

With `CC(C)c1cc(C2CC2)nc(C(C)C)c1NC(=O)NS(=O)(=O)c1cnn2c1OCCC2` [drawing 412], the IC50 on NLRP3 inflammasome (setting [1]) and in the assay on PBMCs (setting [2]) was 100 to 1000 nM in each case. On to `CC(C)c1cc(N(C)C)nc(C(C)C)c1NC(=O)NS(=O)(=O)c1cnn2c1OCCC2` [drawing 418], for which the IC50 is 1000 to 10000 nM on NLRP3 inflammasome (setting [1]) and 100 to 1000 nM in the assay on PBMCs (setting [2]). Consider `CC(C)c1nn(C)c(C(C)C)c1NC(=O)NS(=O)(=O)c1cnn2c1OCCC2` [Example 26, N-((3,5-diisopropyl-1-methyl-1H-pyrazol-4-yl)carbamoyl)-6,7-dihydro-5H-pyrazolo[5,1-b][1,3]oxazine-3-sulfonamide], for which, on NLRP3 inflammasome (setting [3]), the IC50 is over 10000 nM. Consider `O=C(NC1c2ccccc2CC12CCOCC2)NS(=O)(=O)c1cnn2c1OCCC2` (centres unmarked) [Example 2, N-((1,2′,3,3′,5′,6′-hexahydrospiro[indene-2,4′-pyran]-1-yl)carbamoyl)-6,7-dihydro-5H-pyrazolo[5,1-b][1,3]oxazine-3-sulfonamide], for which the IC50 at NLRP3 inflammasome (setting [3]) is over 10000 nM. As for `Cc1nc(NC(=O)NS(=O)(=O)c2cnn3c2OCCC3)nc2c1CCCC2` [drawing 389], the IC50 at NLRP3 inflammasome (setting [1]) was over 10000 nM. In the case of `Cc1cc(NC(=O)NS(=O)(=O)c2cnn3c2OCCC3)n(C(C)C)n1` [drawing 410], the IC50 at NLRP3 inflammasome (setting [1]) is over 10000 nM. `CC1Cc2ccccc2C1NC(=O)NS(=O)(=O)c1cnn2c1OCCC2` (centres unmarked) [Example 6, N-((2-methyl-2,3-dihydro-1H-inden-1-yl)carbamoyl)-6,7-dihydro-5H-pyrazolo[5,1-b][1,3]oxazine-3-sulfonamide]: the IC50 at NLRP3 inflammasome (setting [3]) is over 10000 nM. Take `O=C(NC1(c2ccccc2)CCCCCC1)NS(=O)(=O)c1cnn2c1OCCC2` [drawing 377]: the IC50 at NLRP3 inflammasome (setting [1]) is over 10000 nM.

The values above are taken from patent US11560391B2, “Sulfonylurea compounds as inhibitors of interleukin-1 activity” (Genentech, Inc., priority 2018, dated 2023).
